The supplement of paper PMC10307832

Key:
Experiment in all cases: relative viability (nuclei count vs DMSO), 5 days (fraction); higher = more cells survive
Ruxolitinib + Decitabine = compound: N#CC[C@H](C1CCCC1)n1cc(-c2ncnc3[nH]ccc23)cn1 [Ruxolitinib] + Nc1ncn([C@H]2C[C@H](O)[C@@H](CO)O2)c(=O)n1 [Decitabine] (partner 2 µM)
Summary of the method: (§1)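 Medians of duplicate plates are given as relative viability. That measure is the nuclei count in treated wells divided by the count in vehicle wells. Counts were taken on 4× images of lung cancer cell lines in 1536-well plates, 5 days after pin-tool dosing the day after seeding with one drug alone or a fixed anchor-drug dose plus five library-drug doses (not always all listed) in √10 steps.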

VE-821 + Luminespib = compound: CS(=O)(=O)c1ccc(-c2cnc(N)c(C(=O)Nc3ccccc3)n2)cc1 [VE-821] + CCNC(=O)c1noc(-c2cc(C(C)C)c(O)cc2O)c1-c1ccc(CN2CCOCC2)cc1 [Luminespib] (partner 0.01 µM)
Summary of the method: as §1

Vismodegib + Lapatinib = compound: CS(=O)(=O)c1ccc(C(=O)Nc2ccc(Cl)c(-c3ccccn3)c2)c(Cl)c1 [Vismodegib] + CS(=O)(=O)CCNCc1ccc(-c2ccc3ncnc(Nc4ccc(OCc5cccc(F)c5)c(Cl)c4)c3c2)o1 [Lapatinib] (partner 2 µM)
Summary of the method: as §1

Vismodegib + Pemetrexed = compound: CS(=O)(=O)c1ccc(C(=O)Nc2ccc(Cl)c(-c3ccccn3)c2)c(Cl)c1 [Vismodegib] + Nc1nc2[nH]cc(CCc3ccc(C(=O)N[C@@H](CCC(=O)O)C(=O)O)cc3)c2c(=O)[nH]1 [Pemetrexed] (partner 0.2 µM)
Summary of the method: as §1

Question: With UMC-11 as the cell line, how does the relative viability (Ruxolitinib + Decitabine; first compound 0.08 µM) read?
Answer: 0.745

Question: What about the relative viability (Ruxolitinib + Decitabine; first compound 0.253 µM) of the same cell line?
Answer: 0.62

Question: And the relative viability (Ruxolitinib + Decitabine; first compound 0.8 µM)?
Answer: 0.797

Question: And the relative viability (Ruxolitinib + Decitabine; first compound 2.53 µM)?
Answer: 0.433

Question: What about the relative viability (Ruxolitinib + Decitabine; first compound 8 µM) of the same cell line?
Answer: 0.627

Question: What about the relative viability (VE-821 + Luminespib; first compound 0.08 µM) of the same cell line?
Answer: 1.18

Question: What about the relative viability (VE-821 + Luminespib; first compound 0.253 µM) of the same cell line?
Answer: 0.966

Question: And the relative viability (VE-821 + Luminespib; first compound 0.8 µM)?
Answer: 0.966

Question: And the relative viability (VE-821 + Luminespib; first compound 2.53 µM)?
Answer: 1.03

Question: And the relative viability (VE-821 + Luminespib; first compound 8 µM)?
Answer: 0.493

Question: What about the relative viability (Vismodegib + Lapatinib; first compound 0.08 µM) of the same cell line?
Answer: 0.915

Question: What about the relative viability (Vismodegib + Lapatinib; first compound 0.253 µM) of the same cell line?
Answer: 0.971

Question: What about the relative viability (Vismodegib + Lapatinib; first compound 0.8 µM) of the same cell line?
Answer: 0.893

Question: What about the relative viability (Vismodegib + Lapatinib; first compound 2.53 µM) of the same cell line?
Answer: 0.974

Question: What about the relative viability (Vismodegib + Lapatinib; first compound 8 µM) of the same cell line?
Answer: 0.598

Question: And the relative viability (Vismodegib + Pemetrexed; first compound 0.08 µM)?
Answer: 0.61

Question: And the relative viability (Vismodegib + Pemetrexed; first compound 0.253 µM)?
Answer: 0.807

Question: What about the relative viability (Vismodegib + Pemetrexed; first compound 0.8 µM) of the same cell line?
Answer: 0.768

Question: And the relative viability (Vismodegib + Pemetrexed; first compound 2.53 µM)?
Answer: 0.739

Question: What about the relative viability (Vismodegib + Pemetrexed; first compound 8 µM) of the same cell line?
Answer: 0.868
